Read-outs that look alike come from different tables or passages of the source.
What was measured:
[1] = background literature, cited from earlier work
[2] = biological target: esterase (purified microsome fraction of the liver of a rat); assay: Esterase inhibiting activity (hydrolysis of methyl butyrate); type: biochemical; details: methyl butyrate substrate, pH 8.0, 37° C., 60 minutes
Method: 1. Esterase Inhibiting Activity
A 10 micromole quantity of methyl butyrate in a 50% ethanol solution is added as a substrate to a specified amount of buffer solution (pH 8.0) containing 0.1 mole of trishydrochloric acid. To the mixture is further added a 50% ethanol solution of the compound of the invention, immediately followed by addition of an esterase solution prepared from a purified microsome fraction of the liver of a rat (adjusted to hydrolyze 9 micromoles of methyl butyrate at 37° C. in one hour). The mixture is reacted at 37° C. for 60 minutes.
After the reaction, alkaline hydroxylamine is added to the mixture to form a hydroxamic acid derivative of methyl butyrate, and a ferric salt is added to the derivative. The resulting red color is colorimetrically determined (at a wavelength of 540 nm) to determine the amount of remaining methyl butyrate. The esterase inhibiting ratios of the present compound at least at three concentrations are plotted as ordinate, and the logarithms of the concentrations as abscissa to obtain a line, which gives the 50% inhibition concentration (IC50).

[3] = tested on: triglycerides content in the plasma; assay: Antilipemic effect: inhibition of olive oil-induced hyperlipidemia, plasma triglycerides; type: in vivo, male Wister rats; details: Rattus norvegicus, 100 mg compound in 5 ml olive oil, 5 ml/kg oral, 2 hours, read-out: Antilipemic effect IGI (%) (percent hyperlipidemia inhibition, triglycerides)
Method: Seven-week-old male Wister rats weighing 200 to 220 g are used, 5 rats in each group.
The compound of the invention (100 mg) is dissolved in 5 ml of olive oil. The olive oil containing the compound is orally given to the rat with a probe at a dose of 5 ml/kg. Two hours thereafter, 6 ml of whole blood is withdrawn from the descending aorta of the rat under ether anesthesia with a syringe containing heparin. The blood is centrifuged at 5° C. and 3000 r.p.m. to obtain the plasma. The plasma collected is used for determining the triglycerides content, using a triglycerides measuring kit (trade mark "Triglycerides-B Test Wako," product of Wako Junyaku Co., Ltd., Japan). Olive oil containing no compound is similarly given to a control group, while no treatment is conducted for a normal group. The triglycerides content in the plasma is also determined for these groups in the same manner as is the case with the test groups.
The percent hyperlipidemia inhibition achieved by the present compound is given by [formula] in which A is the triglycerides content of the control group, B is the triglycerides content of the normal group, and C is the triglycerides content of the group to which the present compound is given.

Chymotripsin = Chymotripsin (Bos taurus, UniProt P00766); assay: Chymotripsin inhibiting activity (hydrolysis of ATEE); type: biochemical; details: 0.5 h; 1 × 10^-4 mol; 20 min preincubation, ATEE 30 min, 37° C., pH 8.0
Method: 2. Chymotripsin Inhibiting Activity
Chymotripsin (0.1 unit) serving as an enzyme solution is added to a specified quantity of buffer solution (pH 8.0) containing 0.1 mole of trishydrochloric acid. To the mixture is further added a 50% ethanol solution of the compound of the invention. The mixture is reacted at 37° C. for 20 minutes.
On completion of the reaction, 10 micromoles of […] (ATEE) serving as a substrate is added to the mixture, and the resulting mixture is reacted at 37° C. for 30 minutes.
After the completion of the reaction, the amount of remaining ATEE is determined by the same hydroxamic acid method as above. The percent chymotripsin inhibition is given by [formula] wherein A is the amount of hydrolzed esters in the reaction system not containing the compound of the invention, and B is the amount of hydrolyzed esters in the reaction system containing the present compound.

[4] = Acute toxicity, oral, one week; details: rat, in vivo, 5% gum arabic suspension
Description: Six-week-old male Wister rats weighing 180 to 200 g are used, 5 rats in each group. The present compound is suspended in a 5% aqueous solution of gum arabic, and the suspension is orally given to the rats. For one week after the start of the test, the rats are checked evey day for general toxicity symptoms, body weight and death to determine the LD50 value.

Row | SMILES | reported side effects (in words) [1] | reported side effects (in words) ([1]; listed as clofibrate) | IC50 [2] | inhibition in vivo at 100 mg/kg [3] | inhibition at 100 µM (Chymotripsin) | LD50 at 168 h [4]
1 | CCOC(=O)C(C)(C)Oc1ccc(Cl)cc1 [Clofibrate] | carcinogenic activity | increased sterol discharge | – | – | – | –
2 | Cc1ccc(S(=O)(=O)OCC(=O)[C@H]2CC[C@@H](C(C)(C)C)CC2)cc1 [Compound 36] | – | – | 86 µM | 52% | 44% | > 3000 mg/kg
3 | Cc1ccc(S(=O)(=O)OCC(=O)[C@H]2CC[C@H](C(C)(C)C)CC2)cc1 [Compound 37] | – | – | 5.4 µM | 66% | 22% | > 3000 mg/kg
4 | O=C(O)c1cccnc1 [Nicotinic acid] | pruritus and cutaneous flushing due to vasodilatation, gastrointestinal disorders, abnormalities in liver function and glucose intolerance | – | – | – | – | –

— patent US4452813A, “Sulfonate derivatives, process for preparing same and antilipemic compositions containing the derivative” (Taiho Pharmaceutical Company Limited, priority 1981, dated 1984)
